Experimental data from patent publication US8029980B2, “Identification and use of agents that modulate oncogenic transcription agent activity” (The Board of Trustees of the University of Illinois, priority 2006, dated 2011).

Assays:
[1] = test system: FoxM1 target genes Cdc25B, Survivin, and CENPB; test: Real-time quantitative RT-PCR of FoxM1 target gene mRNA in C3-Luc cells; format: cell-based, human; settings: 24 hrs, vs DMSO
Description: FIG. 2. Siomycin A inhibits endogenous FoxM1 transcriptional activity. (A) C3-Luc cells without doxycycline induction, were treated with increasing dose of Siomycin A and luciferase activity was determined as described in Example 1. (B) C3-Luc cells treated either with DMSO (control) or Siomycin A were harvested 24 hrs later and the RNA was subjected to real-time RT-PCR for quantitation of mRNA levels of FoxM1 target genes Cdc25B, Survivin, and CENPB. (C) C3-Luc cells treated as indicated were harvested 24 hrs later and used for immunoblot analysis to determine the levels of survivin, and p21^WAF1. β-actin protein levels were used as loading control.
Cells treated with Siomycin A or DMSO (control) were harvested 24 hrs later and RNA was extracted using the TRIzol reagent (15596-026; Invitrogen). cDNA was prepared from this RNA using the Bio-Rad cDNA synthesis kit. The following sense (S) and antisense (AS) primer sequences and annealing temperatures (Ta) were used to amplify and measure the amount of human mRNA by real-time RT-PCR: FoxM1-S, 5′-GGAGGAAATGCCACACTTAGCG-3′ (SEQ ID NO: 1), and FoxM1-AS, 5′-TAGGACTTCTTGGGTCTTGGGGTG-3′ (SEQ ID NO: 2) (Ta, 55.7° C.); survivin-S, 5′-TCAAGGACCACCGCATCTCTA-3′ (SEQ ID NO: 3), and survivin-AS, 5′-TGAAGCAGAAGAAACACTGGGC-3′ (SEQ ID NO: 4) (Ta, 61° C.); CENPB-S, 5′-ATTCAGACAGTGAGGAAGAGGACG-3′ (SEQ ID NO: 5), and CENPB-AS, 5′-CATCAATGGGGAAGGAGGTCAG-3′ (SEQ ID NO: 6) (Ta, 58° C.); Cdc25B-S, 5′-CCCTTCCCTGTTTTCCTTTC-3′ (SEQ ID NO: 7), and Cdc25B-AS, 5′-ACACACACTCCTGCCATAGG-3′ (SEQ ID NO: 8) (Ta, 61.7° C.). These real-time RT-PCR RNA levels were normalized to human cyclophilin mRNA levels, and these primers are as follows: cyclophilin-S, 5′-GCAGACAAGGTCCCAAAGACAG-3′ (SEQ ID NO: 9), and cyclophilin-AS, 5′-CACCCTGACACATAAACCCTGG-3′ (SEQ ID NO: 10) (Ta, 55.7° C.).

[2] = test system: NB7 and NB7-casp8 neuroblastoma cells; test: FoxM1 and cleaved caspase-3 immunoblot in neuroblastoma cells; format: cell-based; settings: 24 hrs
Description: FIG. 11. […] Cells were treated with Siomycin A, thiostrepton or DMSO, harvested 24 hrs later and the lysates were used to determine proteins levels by immunoblotting with antibodies specific for FoxM1, cleaved caspase-3 and β-actin (AS441, Sigma).

[3] = test system: Wild type MRC-5 human fetal lung fibroblasts; test: Apoptosis assay (DAPI staining, caspase-3 and survivin immunoblot) in normal fibroblasts; format: cell-based
Description: (§1) FIG. 4. Anti-cancer properties of Siomycin A. (A) Representative photographs from soft agar experiment as described in Example 1 are shown. (B) Number of colonies in the soft agar were quantitated and plotted in the form of bar graphs. (C) Wild type and SV40-transformed MRC-5 human fetal lung fibroblasts were treated with indicated concentrations of Siomycin A for 48 hrs. Photographs from phase contrast microscopy (top panel) and fluorescent microscopy after DAPI staining (bottom panel) are shown. (D) Apoptotic nuclei from normal and SV40-transformed MRC-5 fibroblasts treated with indicated concentrations of Siomycin A for 24 hrs were scored after DAPI staining and percentage cell death (mean±sd; n=3) is shown. (E) Wild type and SV40-transformed MRC-5 fibroblasts were treated with Siomycin A as indicated for 48 hrs and the cell lysates were used for immunoblotting and probed for levels of survivin and cleaved caspase-3.
(§2) Immunoblotting was performed as described (18-20) with antibodies specific for p21 (556431; BD Pharmingen), survivin (sc-10811; Santa Cruz), cleaved caspase-3 (9664; Cell Signaling), and β-actin (A5441; Sigma) antibodies. Immunoblot for FoxM1 was done using the previously generated rabbit antisera (2), and phospho-FoxM1 was detected using the MPM2 monoclonal antibody (Upstate Biotechnology) which recognizes the phosphorylated protein sequence phosphoserine/phosphothreonine-proline.
(§3) Apoptosis was detected by DAPI (4′,6-diamidino-2-phenylindole) staining. All treatments were done in triplicates in 6-well plates and cells were stained with DAPI and visualized by fluorescent microscopy. Four random fields for each sample were photographed and at least 500 cells per field were counted to estimate apoptosis. The data is represented as mean±sd.

[4] = test system: Breast cancer cell lines BT-474, MDA-MB-231, T-47D and ZR-75-1; test: FoxM1 and cleaved caspase-3 immunoblot in breast cancer cell lines; format: cell-based, human; settings: 5 μM, 48 hrs
Description: FIG. 7. […] Breast cancer cell lines BT-474, MDA-MB-231, T-47D and ZR-75-1 were treated with 5 μM Siomycin and thiostrepton, respectively, for 48 hrs and the cell lysates were analyzed for the levels of FoxM1 and cleaved caspase-3 by immunoblotting.
as §2

[5] = test system: Liver cancer cell lines Huh7, Hep-3B and SK-Hep; test: FoxM1 and cleaved caspase-3 immunoblot in liver cancer cell lines; format: cell-based, human; settings: 10 μM, 48 hrs
Description: FIG. 9. […] Liver cancer cell lines Huh7, Hep-3B and SK-Hep were treated with 10 μM Siomycin A and thiostrepton, respectively, for 48 hrs, and the cell lysates were analyzed for the levels of FoxM1 and cleaved caspase-3 by immunoblotting.
as §2
First, we treated liver cancer cell lines Huh7, Hep-3B and SK-Hep that have deleted or mutant p53 with these compounds for 48 hrs, and the cell lysates were analyzed for the levels of FoxM1 and cleaved caspase-3 by immunoblotting.

[6] = test system: SV40-transformed MRC-5 human fetal lung fibroblasts; test: Apoptosis assay (DAPI staining, caspase-3 and survivin immunoblot) in transformed fibroblasts; format: cell-based; settings: SV40-transformed cells
Description: as §1, §2, §3

[7] = test system: FoxM1; test: FoxM1 protein (immunoblot) and mRNA (RT-PCR) levels in C3-Luc cells; format: cell-based, human; settings: 24 hrs
Text: FIG. 3. Mechanisms of FoxM1 inhibition by Siomycin A. (A) C3-Luc cells treated as indicated were harvested after 8 hrs and cell lysates were used for immunoprecipitation of FoxM1 protein. These samples were resolved on an SDS-PAGE gel and immunoblotted to determine total and phospho-FoxM1 levels. (B) C3-Luc cells treated with Siomycin A or DMSO were harvested 24 hrs later and the lysates were used to determine FoxM1 protein levels by immunoblotting. (C) RNA from C3-Luc cells treated with Siomycin A or DMSO for 24 hrs was used to determine levels of FoxM1 mRNA using real-time quantitative RT-PCR.
Cells treated with Siomycin A or DMSO (control) were harvested 24 hrs later and RNA was extracted using the TRIzol reagent (15596-026; Invitrogen). cDNA was prepared from this RNA using the Bio-Rad cDNA synthesis kit. […]
as §2

[8] = normal cells, 48 hrs, immunoblot

**Q.** `C=C(NC(=O)C(=C)NC(=O)c1csc(C2=N[C@@H]3c4csc(n4)[C@H]4NC(=O)c5csc(n5)[C@H]([C@](C)(O)[C@@H](C)O)NC(=O)[C@H]5CSC(=N5)/C(=C/C)NC(=O)[C@H]([C@@H](C)O)NC(=O)c5csc(n5)[C@]3(CC2)NC(=O)[C@H](C)NC(=O)C(=C)NC(=O)C(=C)NC(=O)[C@H](C(C)C)N[C@@H]2C=Cc3c([C@H](C)O)cc(nc3[C@H]2O)C(=O)O[C@@H]4C)n1)C(N)=O` [Siomycin A] was tested. Which “CENPB mRNA level compared to initial level” value [1] did it give?
**A.** 15%

**Q.** What about the “Cdc25B mRNA level relative to basal value” [1] of the same compound?
**A.** 32%

**Q.** What about the “Survivin mRNA level compared to initial level” value [1] of the same compound?
**A.** 48%

**Q.** What about the “apoptosis (cleaved caspase-3)” value ([2]; NB7 and NB7 with reconstituted caspase-8) of the same compound?
**A.** induce apoptosis in these neuroblastoma cells independently from caspase-8

**Q.** And the FoxM1 protein expression ([2]; immunoblot)?
**A.** inhibit FoxM1 protein expression

**Q.** And the “cleavage of caspase-3” value [3, 8]?
**A.** but not normal cells showed cleavage of caspase-3

**Q.** And the survivin levels [3, 8]?
**A.** effectively repress survivin levels

**Q.** What about the “apoptosis / cell death” value ([3]; untransformed normal cells, forty-eight hours after treatment) of the same compound?
**A.** did not exhibit significant cell death

**Q.** What about the FoxM1 expression [4] of the same compound?
**A.** inhibit FoxM1 expression

**Q.** What about the “apoptosis (cleaved caspase-3)” value [4] of the same compound?
**A.** induce apoptosis

**Q.** And the FoxM1 protein expression [5]?
**A.** repress FoxM1 protein expression

**Q.** And the “apoptosis (cleaved caspase-3)” value [5]?
**A.** induce apoptosis

**Q.** And the “cleavage of caspase-3” value ([6]; 48 hrs, immunoblot)?
**A.** showed cleavage of caspase-3

**Q.** And the survivin levels ([6]; 48 hrs, immunoblot)?
**A.** effectively repress survivin levels

**Q.** What about the “apoptosis / cell death” value ([6]; forty-eight hours after treatment) of the same compound?
**A.** dose dependent apoptosis

**Q.** What about the “FoxM1 mRNA levels” value [7] of the same compound?
**A.** significantly decreased

**Q.** What about the FoxM1 protein levels [7] of the same compound?
**A.** significantly decreased
